As a reminder, the pEC50 is the EC50 on a negative log10 scale, so that one unit is a factor of ten.

pEC50: −log10 of the molar value.

The data set is described as follows: Reversal of P-gp-mediated multidrug resistance to vinblastine in human CEM/VLB500 cells after 3 days by resazurin assay. Background: Alamar Blue is a resazurin reagent that responds to reducing activity.

On to `COc1ccc(CCN2CCC[C@H]2CNC(=O)c2ccccc2NC(=O)c2cnc3ccccc3c2)cc1OC` [(S) N-(2-((1-(3,4-dimethoxyphenethyl)pyrrolidin-2-yl)methylcarbamoyl)phenyl)quinoline-3-carboxamide], for which the negative logarithm of the EC50 (pEC50) is 6.48.
As to `COc1ccc(CCN2CCC[C@@H]2CNC(=O)c2ccccc2NC(=O)c2cnc3ccccc3c2)cc1OC` [(R) N-(2-((1-(3,4-dimethoxyphenethyl)pyrrolidin-2-yl)methylcarbamoyl)phenyl)quinoline-3-carboxamide], the pEC50 was 6.32.
For the compound `O=C(Nc1ccccc1C(=O)N[C@@H]1CCCC[C@@H]1N1CCN(c2ccccc2)CC1)c1cnc2ccccc2c1` (racemic) [rac-cis-N-(2-(2-(4-phenylpiperazin-1-yl)cyclohexylcarbamoyl)phenyl)quinoline-3-carboxamide], the negative logarithm of the EC50 (pEC50) is 6.19.
Turning to `COc1ccc(CN2CCN(c3ccc(NC(=O)c4cc(OC)c(OC)cc4NC(=O)c4cnc5ccccc5c4)cc3)CC2)cc1OC` [N-(2-(4-(4-(3,4-dimethoxybenzyl)piperazin-1-yl)phenylcarbamoyl)-4,5-dimethoxyphenyl)quinoline-3-carboxamide], the pEC50 is 7.23.
On to `COc1ccc(CN2CCN(c3ccc(NC(=O)c4ccccc4NC(=O)c4cnc5ccccc5c4)cc3)CC2)cc1OC` [N-(2-(4-(4-(3,4-dimethoxybenzyl)piperazin-1-yl)phenylcarbamoyl)phenyl)quinoline-3-carboxamide], for which the negative logarithm of the EC50 (pEC50) was 6.91.
For the compound `COc1cc2c(cc1OC)CN(CCc1ccc(NC(=O)c3cc(OC)c(OC)cc3NC(=O)c3cnc4ccccc4c3)cc1)CC2`, the pEC50 was 7.17.
